Where “and” joins values, the source holds several entries; their conditions need not be identical. Identical values can stand only once. Counter-ions that a name gives are not always drawn.

The subject of one series is Venturia inaequalis (Cke.) Wint. Nature of the series: whole plant or invertebrate. The settings on record: Venturia inaequalis, foliar, read-out: Apple Scab Percent Disease Control. The class given is in vivo.
Turning to `O=[N+]([O-])Nc1ccccc1Cl`, the pest or weed control at 500 ppm stood at 93%.
Turning to `O=[N+]([O-])Nc1cccc(Cl)c1Cl` [drawing 64], the pest or weed control at 200 ppm amounted to 67% and the pest or weed control at 500 ppm was 76%.
For `CS(=O)(=O)c1ccc(N[N+](=O)[O-])cc1` [drawing 66], the pest or weed control at 500 ppm is 76%.
Same read-out and setting: the value for `O=[N+]([O-])Nc1c(Br)cc(C(F)(F)F)cc1Br` [drawing 67] was 76%; that for `CC(=O)Nc1cc(Cl)c(N[N+](=O)[O-])c(Cl)c1` [drawing 68] was 76%; that for `O=[N+]([O-])Nc1c(Cl)c(Cl)cc(Cl)c1Cl` [drawing 69] was 76%.
Consider `COC(=O)CN(c1c(Cl)c(Cl)cc(Cl)c1Cl)[N+](=O)[O-]` [drawing 73], for which the pest or weed control at 200 ppm is 83% and the pest or weed control at 500 ppm was determined as 96%.

The same series, now with this note: in vivo.
Regarding `O=[N+]([O-])Nc1c(Cl)c(Cl)cc(Cl)c1Cl` [2,3,5,6-tetrachlorophenylnitramine N-barium salt], the “activity against apple scab” value is listed as “active”.
The same measure, in the same setting: as for `O=[N+]([O-])Nc1ccc(Cl)cc1Cl` [2,4-dichlorophenylnitramine], the entry is “active”.
Same read-out and setting: as for `CC(=O)Nc1cc(Cl)c(N[N+](=O)[O-])c(Cl)c1` [2,6-dichloro-4-acetamidophenylnitramine], the entry is “active”; as for `CS(=O)(=O)c1ccc(N[N+](=O)[O-])cc1` [4-methylsulfonylphenylnitramine], “active”; as for `CC(C)N(c1c(Cl)c(Cl)cc(Cl)c1Cl)[N+](=O)[O-]` [--(CH(CH3)2], “active”.
Same read-out and setting: the value for `COC(=O)CN(c1c(Cl)c(Cl)cc(Cl)c1Cl)[N+](=O)[O-]` [--CH2 COOCH3] was “active”.

Tested on in another series: not listed separately
Nature of the series: Thermal decomposition point (Differential Thermal Analyzer). Type of series: physicochemical. The following applies: 20° C./min, onset method. The procedure:
By the procedure of Examples 2 and 5 the following novel salts of 2,3,5,6-tetrachloro-N-nitroaniline are prepared as listed in Table II below. The melting points (uncorrected) of said salts are determined on a Thomas Hoover Capillary Melting Point Apparatus; while the thermal decomposition points of said salts are determined on a Dupont 900 Differential Thermal Analyzer. […] Decompositions are recorded by an exothermic response and the temperatures given in Table II below are assessed by the "onset method".
For the compound `O=[N+]([O-])Nc1c(Cl)c(Cl)cc(Cl)c1Cl` [K], the “Thermal Decomposition Point” value is 272 °C.
In the case of `O=[N+]([O-])Nc1c(Cl)c(Cl)cc(Cl)c1Cl` [NH2 (C3 H7)2], the “Thermal Decomposition Point” value amounted to 204 °C.
On the same count and under the same terms, the value for `O=[N+]([O-])Nc1c(Cl)c(Cl)cc(Cl)c1Cl` [NH2 (C4 H9)2] was 207 °C; that for `O=[N+]([O-])Nc1c(Cl)c(Cl)cc(Cl)c1Cl` [NH2 (C18 H37)2] was 168 °C; that for `O=[N+]([O-])Nc1c(Cl)c(Cl)cc(Cl)c1Cl` [NH2 (CH2 CH2 OH)2] was 173 °C and 177 °C.
On the same count and under the same terms, the value for `O=[N+]([O-])Nc1c(Cl)c(Cl)cc(Cl)c1Cl` [NH2 (CH2C6 H5)2, dibenzylamine salt of 2,3,5,6-tetrachloro-N-nitroaniline] was 183 °C; that for `O=[N+]([O-])Nc1c(Cl)c(Cl)cc(Cl)c1Cl` [NH3 (CH2)3 NHC12 H25 -n] was 184 °C.
Same read-out and setting: as for `O=[N+]([O-])Nc1c(Cl)c(Cl)cc(Cl)c1Cl` [NH3 (CH2)8 CHCH(CH2)7 CH3], the figure is 157 °C.
As for `O=[N+]([O-])Nc1c(Cl)c(Cl)cc(Cl)c1Cl` [NH3 C8 H17], the “Thermal Decomposition Point” value is 163 °C.
On the same count and under the same terms, as for `O=[N+]([O-])Nc1c(Cl)c(Cl)cc(Cl)c1Cl` [NH3 C12 H25 -n], the figure is 166 °C; as for `O=[N+]([O-])Nc1c(Cl)c(Cl)cc(Cl)c1Cl` [NH3 C16 H33], 148.5 °C.
Turning to `O=[N+]([O-])Nc1c(Cl)c(Cl)cc(Cl)c1Cl` [NH3 CH2 CH2 NH2], the “Thermal Decomposition Point” value was 208 °C.
The same measure, in the same setting: the value for `O=[N+]([O-])Nc1c(Cl)c(Cl)cc(Cl)c1Cl` [NH3 CH2 CH2 OH, ethanolamine salt of 2,3,5,6-tetrachloro-N-nitroaniline] was 203 °C.
The same measure, in the same setting: the value for `O=[N+]([O-])Nc1c(Cl)c(Cl)cc(Cl)c1Cl` [NH3 CH3] was 183 °C.
Still for that read-out and setting: as for `O=[N+]([O-])Nc1c(Cl)c(Cl)cc(Cl)c1Cl` [NH4], the figure is 178 °C; as for `O=[N+]([O-])Nc1c(Cl)c(Cl)cc(Cl)c1Cl` [NH(C2 H5)3], 169 °C; as for `O=[N+]([O-])Nc1c(Cl)c(Cl)cc(Cl)c1Cl` [NH(C3 H7)3], 154 °C.
Take `O=[N+]([O-])Nc1c(Cl)c(Cl)cc(Cl)c1Cl` [NH(CH2 CH2 OH)3]: the “Thermal Decomposition Point” value was determined as 150 °C.
Same read-out and setting: as for `O=[N+]([O-])Nc1c(Cl)c(Cl)cc(Cl)c1Cl` [NH(CH3)2 . C6 H5, N,N-dimethylaniline salt of 2,3,5,6-tetrachloro-N-nitroaniline], the figure is 128 °C; as for `O=[N+]([O-])Nc1c(Cl)c(Cl)cc(Cl)c1Cl` [NHC18 H37 . (CH2 CH2 O)2 H . (CH2 CH2 O)3 H], 153-157 °C; as for `O=[N+]([O-])Nc1c(Cl)c(Cl)cc(Cl)c1Cl` [drawing 21], 176 °C.
Still for that read-out and setting: the value for `O=[N+]([O-])Nc1c(Cl)c(Cl)cc(Cl)c1Cl` [drawing 22] was 143 °C; that for `O=[N+]([O-])Nc1c(Cl)c(Cl)cc(Cl)c1Cl` [drawing 23] was 163 °C.
Regarding `O=[N+]([O-])Nc1c(Cl)c(Cl)cc(Cl)c1Cl` [drawing 24], the “Thermal Decomposition Point” value was determined as 138 °C.
For the compound `O=[N+]([O-])Nc1c(Cl)c(Cl)cc(Cl)c1Cl` [drawing 25], the “Thermal Decomposition Point” value was 173 °C.
The same measure, in the same setting: as for `O=[N+]([O-])Nc1c(Cl)c(Cl)cc(Cl)c1Cl` [drawing 26], the figure is 203 °C.

Another series has as its system Erysiphe graminis f. sp. hordei. The series can be described thus: whole plant or invertebrate. The class given is in vivo. The settings on record: Blumeria graminis, in Hordeum vulgare, foliar, read-out: Barley Powdery Mildew Percent Disease Control.
`O=[N+]([O-])Nc1cccc(C(F)(F)F)c1`: the pest or weed control at 500 ppm was found to be 96%.
The same measure, in the same setting: as for `N#Cc1ccc(N[N+](=O)[O-])c(Br)c1`, the figure is 100%; as for `CCc1cccc(CC)c1N[N+](=O)[O-]`, 100%; as for `CN(c1c(Br)cccc1Br)[N+](=O)[O-]`, 89%.
For the compound `CC(C)OC(=O)Nc1cc(Cl)c(N[N+](=O)[O-])c(Cl)c1`, the pest or weed control at 200 ppm came out at 97%.
As for `CCN(c1c(Br)cccc1Br)[N+](=O)[O-]`, the pest or weed control at 500 ppm turned out to be 89%.
The same measure, in the same setting: as for `O=[N+]([O-])N(Cc1ccccc1)c1c(Br)cccc1Br`, the figure is 100%.
The same measure, in the same setting: the value for `CC(C)N(c1c(Br)cccc1Br)[N+](=O)[O-]` was 100%; that for `CN(c1c(Cl)c(Cl)cc(Cl)c1Cl)[N+](=O)[O-]` was 100%; that for `O=[N+]([O-])Nc1cc(Cl)c(Cl)c(Cl)c1Cl` was 84%.
As for `O=[N+]([O-])Nc1ccc(C(F)(F)F)cc1` [drawing 84], the pest or weed control at 50 ppm was 84%, the pest or weed control at 100 ppm amounted to 95%, the pest or weed control at 200 ppm came to 91% and the pest or weed control at 500 ppm amounted to 96%.
In the case of `O=[N+]([O-])Nc1c(Cl)c(Cl)cc(Cl)c1Cl` [drawing 87], the pest or weed control at 50 ppm is 48% and the pest or weed control at 500 ppm turned out to be 84%.
Take `O=[N+]([O-])Nc1cccc(Cl)c1Cl` [drawing 89]: the pest or weed control at 500 ppm worked out at 100%.
On to `O=[N+]([O-])Nc1ccc(Cl)cc1Cl` [drawing 90], for which the pest or weed control at 500 ppm was 100%.
Still for that read-out and setting: the value for `O=[N+]([O-])Nc1c(Cl)cccc1Cl` [drawing 91] was 100%.
`CS(=O)(=O)c1ccc(N[N+](=O)[O-])cc1` [drawing 93]: the pest or weed control at 500 ppm worked out at 100%.
The same measure, in the same setting: as for `O=[N+]([O-])Nc1cccc(Br)c1` [drawing 99], the figure is 96%; as for `Cc1cc([N+](=O)[O-])cc(C)c1N[N+](=O)[O-]` [drawing 101], 100%.
Regarding `O=[N+]([O-])Nc1c(Br)cc(C(F)(F)F)cc1Br` [drawing 102], the pest or weed control at 200 ppm turned out to be 83% and the pest or weed control at 500 ppm is 100%.
For `CC(=O)Nc1cc(Cl)c(N[N+](=O)[O-])c(Cl)c1` [drawing 107], the pest or weed control at 500 ppm worked out at 84%.
On the same count and under the same terms, as for `CCC(=O)Nc1cc(Cl)c(N[N+](=O)[O-])c(Cl)c1` [drawing 108], the figure is 100%.
As to `CC(=O)N(c1c(Cl)c(Cl)cc(Cl)c1Cl)[N+](=O)[O-]` [drawing 121], the pest or weed control at 50 ppm worked out at 95%, the pest or weed control at 100 ppm was determined as 95%, the pest or weed control at 200 ppm came to 95% and the pest or weed control at 500 ppm was 100%.
On to `COC(=O)CN(c1c(Cl)c(Cl)cc(Cl)c1Cl)[N+](=O)[O-]` [drawing 122], for which the pest or weed control at 500 ppm was 84%.

Still in this series, the particulars now being: in vivo.
As for `O=[N+]([O-])Nc1c(Cl)c(Cl)cc(Cl)c1Cl` [drawing 87], the “Barley Powdery Mildew Percent Disease Control” value turned out to be 71%.
The same measure, in the same setting: as for `O=[N+]([O-])Nc1c(Cl)c(Cl)cc(Cl)c1Cl` [drawing 100], the figure is 100% and 95%.
Still for that read-out and setting: the value for `CCC(=O)Nc1cc(Cl)c(N[N+](=O)[O-])c(Cl)c1` [drawing 112] was 89%.
In the case of `O=[N+]([O-])Nc1c(Cl)c(Cl)cc(Cl)c1Cl` [drawing 118], the “Barley Powdery Mildew Percent Disease Control” value came out at 100%.
On the same count and under the same terms, as for `O=[N+]([O-])Nc1c(Cl)c(Cl)cc(Cl)c1Cl` [drawing 123], the figure is 98% and 96%.

The next series concerns Podosphaera leucotricha (E&E) Salm. The series can be described thus: whole plant or invertebrate. Type of series: in vivo. The following applies: Podosphaera leucotricha, foliar, read-out: Apple Powdery Mildew Percent Disease Control.
For the compound `Cc1c(Cl)cccc1N[N+](=O)[O-]`, the pest or weed control at 500 ppm stood at 84%.

The same series, now with this note: in vivo.
Consider `O=[N+]([O-])Nc1c(Cl)cccc1Cl` [2,6-dichloro-], for which the “activity against apple powdery mildew” value is on record as “active”.
With `Cc1cc([N+](=O)[O-])cc(C)c1N[N+](=O)[O-]` [2,6-dimethyl-4-nitro-], the “activity against apple powdery mildew” value is “active”.
For `O=[N+]([O-])Nc1cccc(Br)c1` [3-bromophenylnitramine], the “activity against apple powdery mildew” value was “active”.

These data come from patent publication US4130645A (priority 1978, dated 1978).
